In paper PMC10439952, “JT002, a small molecule inhibitor of the NLRP3 inflammasome for the treatment of autoinflammatory disorders” (Scientific Reports, 2023):

Assays:
[1] = system: autocatalytic cleavage of pro-caspase-1 (p45) into the p10 subunit; assay: Western blot for caspase-1 p10 in LPS + nigericin stimulated mouse BMDM lysates and supernatants; assay type: cell-based; conditions: LPS + nigericin treated mBMDMs, compound 10 µM
Procedure: BMDMs were activated with LPS and nigericin as described above and were lysed in situ with 50 μL of 4× NuPAGE LDS sample buffer (Fisher Scientific, Hampton, NH) + 5% β-mercaptoethanol and prepared for polyacrylamide gel electrophoresis. Samples were run on NuPAGE Bis–Tris gels (Fisher Scientific, Hampton, NH) and transferred to polyvinylidene difluoride (PVDF) membranes (Fisher Scientific, Hampton, NH) using the iBlot® 2 Dry Blotting System (Fisher Scientific, Hampton, NH). Washed PVDF membranes were blocked and then probed with the following primary antibodies: procaspase-1 + p10 + p12 [EPR16883] (Abcam, Cambridge, MA), β-actin (AC-74, Sigma-Aldrich, St. Louis, MO) and NLRP3 [Cryo-2] (AdipoGen Life Sciences, San Diego, CA). Bound primary antibodies were detected using HRP-labeled secondary antibodies and membranes were imaged with an Azure c300 imager (Azure Biosystems, Dublin, CA). Bands were quantitated using ImageJ software.

[2] = parameters: method as in PMID 26206150; conditions: daily dose of 1200 mg; development terminated; cited from earlier work
[3] = system: murine house dust mite model of severe corticosteroid-resistant asthma; parameters: method as in PMID 28528200; conditions: i.p. administration; cited from earlier work

| SMILES | formation of the caspase-1 p10 subunit (autocatalytic cleavage of pro-caspase-1) [1] | p10 component in cell supernatants [1] | liver safety in the clinic [2] | bronchoalveolar lavage IL-1β concentrations [3] | bronchoalveolar lavage neutrophilia [3] | development of airway hyperresponsiveness [3] |
| --- | --- | --- | --- | --- | --- | --- |
| CCOC(=O)C1=CCCC[C@H]1S(=O)(=O)Nc1ccc(F)cc1Cl [TAK242, ethyl (6R)-6-[N-(2-Chloro-4-fluorophenyl)sulfamoyl]cyclohex-1-ene-1-carboxylate] | did not inhibit the autocatalytic cleavage of pro-caspase-1 into the p10 subunit | appearance of the p10 component in cell supernatants |  |  |  |  |
| CC(C)(O)c1coc(S(=O)(=O)NC(=O)Nc2c3c(cc4c2CCC4)CCC3)c1 [MCC950] | blocked formation of the p10 subunit and its release from the cell |  | drug induced liver injury (DILI) detected | reduced | reduced | completely prevented |
| C[C@H](NC(=O)C(=O)Nc1ccccc1C(C)(C)C)C(=O)N[C@@H](CC(=O)O)C(=O)COc1c(F)c(F)cc(F)c1F [emricasan] | did not inhibit the autocatalytic cleavage of pro-caspase-1 into the p10 subunit |  |  |  |  |  |
